Experiment [1] deals with Hedgehog signaling pathway Gli Reporter-NIH3T3 cells. The experiment in a line: Gli luciferase reporter assay, Hedgehog signalling pathway activity. The experiment is classed as cell-based. Conditions: mShh 1 μg/ml, 27 hours. The method, then:
Hedgehog signaling pathway Gli Reporter-NIH3T3 cells were cultured in DMEM medium with 10% Calf serum, 1% Penn-strep, 500 μg/ml of Geneticin.
To perform the Gli luciferase reporter assay, Gli Reporter—NIH3T3 cells were seeded at 25,000 cells per well into white clear-bottom 96-well microplate in 100 μl of growth medium. Cells were incubated at 37° C., and 5% CO2 for overnight. The next day, remove the medium from wells and add 45 μl of diluted inhibitor in assay medium (Opti-MEM Reduced Serum Medium+0.5% calf serum+1% non-essential amino acids+1 mM Na-pyruvate+10 mM HEPES+1% Pen/Strep) per well. Incubate cells at 37° C. in a CO2 incubator for 2 hours. Then add 5 μl of diluted mShh in assay medium to wells (final [mShh]=1 μg/ml). Add 50 μl of assay medium to cell-free control wells. Cells were treated for 27 hours. After treatment, cells were lysed and luciferase assay was performed using ONE-Step luciferase assay system: add 50 μl of One-Step Luciferase reagent per well and rock at room temperature for ˜30 minutes. Luminescence was measured using a luminometer (BioTek Synergy™ 2 microplate reader). Compounds of the present invention are active in blockade of hedgehog signalling.

The next experiment relates to C. albicans (ATCC 90028). The experiment in a line: Minimum inhibitory concentration, in vitro broth microdilution assay (CLSI M27-A2). The experiment is classed as cell-based, Candida albicans. Conditions: Candida albicans, ATCC90028, 48 h, ATCC 90028; about 50% growth reduction; 2 days at 36° C.; range tested 8-0.0078 μg/mL; values given as ranges; read-out: Candida albicans MIC. In a few lines: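 Inoculum of 1×10^3 to 1×10^4 CFU/mL in RPMI-1640+MOPS, exposed to 11 two-fold serial compound concentrations at 2 percent final DMSO, per CLSI M27-A2. After 2 days at 36° C, wells scored visually for growth to give MIC; tested in duplicate.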

The subject of the next experiment is A. fumigatus. The experiment in a line: A. fumigatus MIC at 100% growth inhibition (CLSI M38-A2). As to conditions: 100% growth inhibition, range tested 8-0.0078 μg/mL, values given as ranges; for MIC: Aspergillus fumigatus, read-out: Aspergillus fumigatus MIC. The experiment is classed as cell-based, Aspergillus fumigatus. The method, then: A. fumigatus MICs were determined at 100% growth inhibition following CLSI guidelines at a concentration range of 8-0.0078 μg/mL (CLSI M38-A2).

In brackets after ≈: the same amount, converted by molar mass.

Consider 18 compounds from patent US10464922B2, “Metalloenzyme inhibitor compounds” (NQP 1598 LTD., priority 2015, dated 2019).

In the case of `CC[C@@H]([C@H](C)O)n1ncn(-c2ccc(N3CCN(c4ccc(-c5ccc(C(F)(F)C(O)(Cn6cnnn6)c6ccccc6F)nc5)cc4)CC3)cc2)c1=O` (mixture of isomers) [Example 38], in experiment [1], the half-maximal inhibitory concentration (IC50) turned out to be 38 nM.
With `CC[C@@H]([C@H](C)O)n1ncn(-c2ccc(N3CCN(c4ccc(-c5ccc(C(F)(F)C(O)(Cn6cnnn6)c6cccc(Cl)c6)nc5)cc4)CC3)cc2)c1=O` (mixture of isomers) [Example 127, 4-(4-(4-(4-(6-(2-(3-chlorophenyl)-1,1-difluoro-2-hydroxy-3-(1H-tetrazol-1-yl)propyl)pyridin-3-yl)phenyl)piperazin-1-yl)phenyl)-2-((2S,3S)-2-hydroxypentan-3-yl)-2,4-dihydro-3H-1,2,4-triazol-3-one], the results for the MIC in the experiment on C. albicans (ATCC 90028) and in the experiment on A. fumigatus were 0.1 to 1 µg/mL and above 8 µg/mL, respectively. Also, the half-inhibitory concentration (IC50) in experiment [1] was found to be 20 nM.
Regarding `CC(C)n1ccn(-c2ccc(N3CCN(c4ccc(-c5ccc(C(F)(F)[C@](O)(Cn6cnnn6)c6ccc(F)cc6F)nc5)cc4)CC3)cc2)c1=O` [Example 91, 1-(4-(4-(4-(6-(2-(2,4-difluorophenyl)-1,1-difluoro-2-hydroxy-3-(1H-tetrazol-1-yl)propyl)pyridin-3-yl)phenyl)piperazin-1-yl)phenyl)-3-isopropyl-1,3-dihydro-2H-imidazol-2-one], the MIC with C. albicans (ATCC 90028) was 0.0078 to 0.01 µg/mL (≈ 0.0109 to 0.014 µM); in the experiment on A. fumigatus, 0.25 to 1 µg/mL (≈ 0.35 to 1.4 µM).
Consider `CC[C@@H]([C@H](C)O)n1cnc(-c2ccc(N3CCN(c4ccc(-c5ccc(C(F)(F)[C@](O)(Cn6cnnn6)c6ccc(F)cc6F)nc5)cc4)CC3)cc2)n1` [Example 92, (2S,3S)-3-(3-(4-(4-(4-(6-(2-(2,4-difluorophenyl)-1,1-difluoro-2-hydroxy-3-(1H-tetrazol-1-yl)propyl)pyridin-3-yl)phenyl)piperazin-1-yl)phenyl)-1H-1,2,4-triazol-1-yl) pentan-2-ol], for which the MIC with C. albicans (ATCC 90028) lay in the range of 0.0078 to 0.01 µg/mL (≈ 0.0105 to 0.0135 µM); with A. fumigatus, 0.25 to 1 µg/mL (≈ 0.337 to 1.35 µM).
Take `CCC(C(C)O)n1ncn(-c2ccc(N3CCN(c4ccc(-c5ccc(C(F)(F)[C@](O)(Cn6cnnn6)c6ccc(F)cc6F)nc5)cc4)CC3)cc2)c1=O` (stereo partly drawn) [Example 93]: the MIC in the experiment on C. albicans (ATCC 90028) was 0.0078 to 0.01 µg/mL (≈ 0.0103 to 0.0132 µM); in the experiment on A. fumigatus it was 0.25 to 1 µg/mL (≈ 0.329 to 1.32 µM).
For `OC(c1cn(-c2ccc(N3CCN(c4ccc(-c5ccc(C(F)(F)[C@](O)(Cn6cnnn6)c6ccc(F)cc6F)nc5)cc4)CC3)cc2)nn1)C(F)(F)F` (stereo partly drawn) [Example 94, (2R)-2-(2,4-difluorophenyl)-1,1-difluoro-3-(1H-tetrazol-1-yl)-1-(5-(4-(4-(4-(4-(2,2,2-trifluoro-1-hydroxyethyl)-1H-1,2,3-triazol-1-yl)phenyl)piperazin-1-yl)phenyl)pyridin-2-yl) propan-2-ol], the values for the MIC in the experiment on C. albicans (ATCC 90028) and in the experiment on A. fumigatus were 0.0078 to 0.01 µg/mL (≈ 0.0103 to 0.0133 µM) and 0.25 to 1 µg/mL (≈ 0.331 to 1.33 µM), respectively.
On to `CC[C@@H]([C@H](C)O)n1cc(-c2ccc(N3CCN(c4ccc(-c5ccc(C(F)(F)[C@](O)(Cn6cnnn6)c6ccc(F)cc6F)nc5)cc4)CC3)cc2)nn1` [Example 95, (2S,3S)-3-(4-(4-(4-(4-(6-((R)-2-(2,4-difluorophenyl)-1,1-difluoro-2-hydroxy-3-(1H-tetrazol-1-yl)propyl)pyridin-3-yl)phenyl)piperazin-1-yl)phenyl)-1H-1,2,3-triazol-1-yl) pentan-2-ol], for which the minimum inhibitory concentration (MIC) in the experiment on C. albicans (ATCC 90028) fell in the range of 0.0078 to 0.01 µg/mL (≈ 0.0105 to 0.0135 µM); in the experiment on A. fumigatus it was 0.25 to 1 µg/mL (≈ 0.337 to 1.35 µM).
As for `O=c1n(CC(F)(F)F)ccn1-c1ccc(N2CCN(c3ccc(-c4ccc(C(F)(F)[C@](O)(Cn5cnnn5)c5ccc(F)cc5F)nc4)cc3)CC2)cc1` [Example 96], the figures for the MIC in the experiment on C. albicans (ATCC 90028) and in the experiment with A. fumigatus were 0.0078 to 0.01 µg/mL (≈ 0.0103 to 0.0133 µM) and 0.25 to 1 µg/mL (≈ 0.332 to 1.33 µM), respectively.
Consider `CCC(C(C)O)n1ccn(-c2ccc(N3CCN(c4ccc(-c5ccc(C(F)(F)[C@](O)(Cn6cnnn6)c6ccc(F)cc6F)nc5)cc4)CC3)cc2)c1=O` (stereo partly drawn) [Example 97, 1-(4-(4-(4-(6-((R)-2-(2,4-difluorophenyl)-1,1-difluoro-2-hydroxy-3-(1H-tetrazol-1-yl)propyl)pyridin-3-yl)phenyl)piperazin-1-yl)phenyl)-3-(2-hydroxypentan-3-yl)-1,3-dihydro-2H-imidazol-2-one], for which the values for the MIC in the experiment on C. albicans (ATCC 90028) and with A. fumigatus were 0.0078 to 0.01 µg/mL (≈ 0.0103 to 0.0132 µM) and 0.25 to 1 µg/mL (≈ 0.33 to 1.32 µM), respectively.
With `O[C@@](Cn1cnnn1)(c1ccc(F)cc1F)C(F)(F)c1ccc(-c2ccc(N3CCN(c4ccc5ncn(Cc6ccccc6)c5c4)CC3)cc2)cn1` [Example 98, (R)-1-(5-(4-(4-(1-benzyl-1H-benzo [d]imidazol-6-yl)piperazin-1-yl)phenyl)pyridin-2-yl)-2-(2,4-difluorophenyl)-1,1-difluoro-3-(1H-tetrazol-1-yl) propan-2-ol], the MIC is 0.01 to 0.1 µg/mL (≈ 0.0139 to 0.139 µM) with C. albicans (ATCC 90028) and above 8 µg/mL in the experiment on A. fumigatus.
The matching figures for `CC(O)C(F)(F)c1ccc(N2CCN(c3ccc(-c4ccc(C(F)(F)[C@](O)(Cn5cnnn5)c5ccc(F)cc5F)nc4)cc3)CC2)cn1` (stereo partly drawn) [Example 99, (2R)-1-(5-(4-(4-(6-(1,1-difluoro-2-hydroxypropyl)pyridin-3-yl)piperazin-1-yl)phenyl)pyridin-2-yl)-2-(2,4-difluorophenyl)-1,1-difluoro-3-(1H-tetrazol-1-yl) propan-2-ol]: 0.0078 to 0.01 µg/mL (≈ 0.0114 to 0.0146 µM) and 0.25 to 1 µg/mL (≈ 0.365 to 1.46 µM).
With `OC(c1cc(F)cc(N2CCN(c3ccc(-c4ccc(C(F)(F)[C@](O)(Cn5cnnn5)c5ccc(F)cc5F)nc4)cc3)CC2)c1)C(F)(F)F` (stereo partly drawn) [Example 100, (2R)-2-(2,4-difluorophenyl)-1,1-difluoro-1-(5-(4-(4-(3-fluoro-5-(2,2,2-trifluoro-1-hydroxyethyl)phenyl)piperazin-1-yl)phenyl)pyridin-2-yl)-3-(1H-tetrazol-1-yl) propan-2-ol], the minimal inhibitory concentration (MIC) in the experiment on C. albicans (ATCC 90028) lay in the range of 0.0078 to 0.01 µg/mL (≈ 0.0111 to 0.0142 µM); in the experiment on A. fumigatus, 0.25 to 1 µg/mL (≈ 0.354 to 1.42 µM).
On to `CC(C)C(C(C)O)n1ncn(-c2ccc(N3CCN(c4ccc(-c5ccc(C(F)(F)[C@](O)(Cn6cnnn6)c6ccc(F)cc6F)nc5)cc4)CC3)cc2)c1=O` (stereo partly drawn) [Example 103, 4-(4-(4-(4-(6-((R)-2-(2,4-difluorophenyl)-1,1-difluoro-2-hydroxy-3-(1H-tetrazol-1-yl)propyl)pyridin-3-yl)phenyl)piperazin-1-yl)phenyl)-2-(2-hydroxy-4-methylpentan-3-yl)-2,4-dihydro-3H-1,2,4-triazol-3-one], for which the values for the minimal inhibitory concentration (MIC) in the experiment with C. albicans (ATCC 90028) and in the experiment with A. fumigatus were 0.0078 to 0.01 µg/mL (≈ 0.0101 to 0.0129 µM) and 0.062 to 0.25 µg/mL (≈ 0.0802 to 0.323 µM), respectively.
The matching figures for `OC(c1cc(N2CCN(c3ccc(-c4ccc(C(F)(F)[C@](O)(Cn5cnnn5)c5ccc(F)cc5F)nc4)cc3)CC2)ccn1)C(F)(F)F` (stereo partly drawn) [Example 104, (2R)-2-(2,4-difluorophenyl)-1,1-difluoro-3-(1H-tetrazol-1-yl)-1-(5-(4-(4-(2-(2,2,2-trifluoro-1-hydroxyethyl)pyridin-4-yl)piperazin-1-yl)phenyl)pyridin-2-yl)propan-2-ol]: 0.0078 to 0.01 µg/mL (≈ 0.0113 to 0.0145 µM) and 0.25 to 1 µg/mL (≈ 0.363 to 1.45 µM).
Consider `O=C(Nc1ccc(N2CCN(c3ccc(-c4ccc(C(F)(F)[C@](O)(Cn5cnnn5)c5ccc(F)cc5F)nc4)cc3)CC2)cc1)C(O)CC(F)(F)F` (stereo partly drawn) [Example 105, N-(4-(4-(4-(6-((R)-2-(2,4-difluorophenyl)-1,1-difluoro-2-hydroxy-3-(1H-tetrazol-1-yl)propyl)pyridin-3-yl)phenyl)piperazin-1-yl)phenyl)-4,4,4-trifluoro-2-hydroxybutanamide], for which the MIC in the experiment with C. albicans (ATCC 90028) was 0.0078 to 0.01 µg/mL (≈ 0.0105 to 0.0134 µM); in the experiment on A. fumigatus, above 8 µg/mL.
Turning to `OC(c1cn(-c2ccc(N3CCN(c4ccc(-c5ccc(C(F)(F)[C@](O)(Cn6cnnn6)c6ccc(F)cc6F)nc5)cc4)CC3)cn2)nn1)C(F)(F)F` (stereo partly drawn) [Example 111, (2R)-2-(2,4-difluorophenyl)-1,1-difluoro-3-(1H-tetrazol-1-yl)-1-(5-(4-(4-(6-(4-(2,2,2-trifluoro-1-hydroxyethyl)-1H-1,2,3-triazol-1-yl)pyridin-3-yl)piperazin-1-yl)phenyl)pyridin-2-yl) propan-2-ol], the values for the minimum inhibitory concentration (MIC) in the experiment with C. albicans (ATCC 90028) and with A. fumigatus were 0.0078 to 0.01 µg/mL (≈ 0.0103 to 0.0132 µM) and 0.25 to 1 µg/mL (≈ 0.331 to 1.32 µM), respectively.
In the case of `CC(C)(C)CC(O)c1ccc(N2CCN(c3ccc(-c4ccc(C(F)(F)[C@](O)(Cn5cnnn5)c5ccc(F)cc5F)nc4)cc3)CC2)cn1` (stereo partly drawn) [Example 118, 1-(5-(4-(4-(6-((R)-2-(2,4-difluorophenyl)-1,1-difluoro-2-hydroxy-3-(1H-tetrazol-1-yl)propyl)pyridin-3-yl)phenyl)piperazin-1-yl)pyridin-2-yl)-3,3-dimethylbutan-1-ol], the minimum inhibitory concentration (MIC) was 0.0078 to 0.01 µg/mL (≈ 0.0113 to 0.0145 µM) in the experiment with C. albicans (ATCC 90028) and 0.25 to 1 µg/mL (≈ 0.362 to 1.45 µM) in the experiment with A. fumigatus.
Take `CC[C@@H]([C@H](C)O)n1ncn(-c2ccc(N3CCN(c4ccc(-c5ccc(C(F)(F)[C@](O)(Cn6cnnn6)c6ccc(F)cc6F)nc5)cc4)CC3)cn2)c1=O` [Example 124, 4-(5-(4-(4-(6-((R)-2-(2,4-difluorophenyl)-1,1-difluoro-2-hydroxy-3-(1H-tetrazol-1-yl)propyl)pyridin-3-yl)phenyl)piperazin-1-yl)pyridin-2-yl)-2-((2S,3S)-2-hydroxypentan-3-yl)-2,4-dihydro-3H-1,2,4-triazol-3-one]: the minimal inhibitory concentration (MIC) with C. albicans (ATCC 90028) fell in the range of 0.01 to 0.1 µg/mL (≈ 0.0132 to 0.132 µM). In addition, the “Aspergillus fumigatus MIC” value in the experiment with A. fumigatus lay in the range of 0.25 to 1.0 µg/mL.
